According to ChEMBL document CHEMBL1126746, “Sulfonylmethanesulfonamide inhibitors of carbonic anhydrase” (J Med Chem, 1993):

Assays:
Carbonic anhydrase 2 = Carbonic anhydrase 2 (Homo sapiens, UniProt P00918)
Description: In vitro inhibition of purified human erythrocyte carbonic anhydrase II

[1] = Equilibrium dissociation constant was determined; format: ADME
[2] = Equilibrium dissociation constant of CA complex for enantiomer 1 of compound; format: ADME
[3] = Equilibrium dissociation constant of CA complex for enantiomer 2 of compound; format: ADME
[4] = test system: Carbonic anhydrase (Oryctolagus cuniculus); test: Inhibition of carbonic anhydrase activity in a homogenate of rabbit iris-ciliary body at a dose of 0.05 mg (ex vivo)
[5] = test system: Carbonic anhydrase (Oryctolagus cuniculus); test: Inhibition of carbonic anhydrase activity in a homogenate of rabbit iris-ciliary body at a dose of 0.25 mg (ex vivo)
[6] = test system: Carbonic anhydrase (Oryctolagus cuniculus); test: Ex vivo inhibition of carbonic anhydrase in homogenate of rabbit iris-ciliary body; expressed as volume/minute of 0.025 N NaOH required to maintain pH of assay mixture at 0.25 mg
[7] = test system: Carbonic anhydrase (Oryctolagus cuniculus); test: Ex vivo inhibition of carbonic anhydrase in homogenate of rabbit iris-ciliary body; expressed as volume/minute of 0.025 N NaOH required to maintain pH of assay mixture at 0.05 mg
Carbonic anhydrase = format: protein assay, Canis lupus familiaris
Description: In vitro inhibition of crude dog red blood cell carbonic anhydrase

Description for physchem: Acid dissociation constant was determined

CCCCCCCCS(=O)(=O)CS(N)(=O)=O
IC50 (Carbonic anhydrase 2): 0.022 µM | pKa (physchem): 9.4

COc1ccc2c(c1)S(=O)(=O)C(S(N)(=O)=O)C2 (stereo not drawn)
IC50 (Carbonic anhydrase 2): 0.8 µM | pKa (physchem): 8.8

COCCOCCOCS(=O)(=O)CS(N)(=O)=O
IC50 (Carbonic anhydrase 2): 1.3 µM

NS(=O)(=O)CSCCc1ccccc1
IC50 (Carbonic anhydrase 2): 2 µM | pKa (physchem): 9.5

NS(=O)(=O)CSCCCc1ccccc1
IC50 (Carbonic anhydrase 2): 1.2 µM | pKa (physchem): 9.4

CCCCCCCCSCS(N)(=O)=O
IC50 (Carbonic anhydrase 2): 0.48 µM

NS(=O)(=O)CS(=O)(=O)CCc1ccccc1
IC50 (Carbonic anhydrase 2): 0.1 µM | pKa (physchem): 8.4

CCCCCCCCS(=O)(=O)C(Cl)(Cl)S(N)(=O)=O
IC50 (Carbonic anhydrase 2): 0.2 µM

NS(=O)(=O)CS(=O)(=O)CCCc1ccccc1
IC50 (Carbonic anhydrase 2): 0.19 µM | pKa (physchem): 8.4

CCCCCCCCS(=O)(=O)C(Cl)S(N)(=O)=O (stereo not drawn)
Kd [1]: 0.017 µM | IC50 (Carbonic anhydrase 2): 0.012 µM | pKa (physchem): 7.7

NS(=O)(=O)CSc1ccc(O)cc1
IC50 (Carbonic anhydrase 2): 2.9 µM | pKa (physchem): 10.1

CCCCCCCCS(=O)(=O)C(C)S(N)(=O)=O (stereo not drawn)
IC50 (Carbonic anhydrase 2): 2.5 µM | pKa (physchem): 8.9

CCCCCCCCS(=O)(=O)C(F)S(N)(=O)=O (stereo not drawn)
Kd [2]: 0.00357 µM | Kd [3]: 0.00064 µM | IC50 (Carbonic anhydrase 2): 0.003 µM | pKa (physchem): 7.5 | inhibition [4]: 71% | inhibition [5]: 91% | CA activity ((ml of NaOH) min-1) [6]: 0.043 | CA activity ((ml of NaOH) min-1) [7]: 0.147

CCS(N)(=O)=O [ETHANESULFONIC ACID AMIDE]
IC50 (Carbonic anhydrase): 1000 µM

NS(=O)(=O)CS(=O)(=O)c1ccc(O)cc1
IC50 (Carbonic anhydrase 2): 0.4 µM | pKa (physchem): 9.1
